Data: patent US4525360A, “Anti-psychotic phenylindene derivatives and acid addition salts thereof” (Kefalas A/S, priority 1982, dated 1985)
Counter-ions that a name gives are not always drawn. Like-named read-outs stand apart in the source and are kept apart here.

Legend:
[1] = Catalepsy wire mesh, rat, max.; assay type: in vivo, rats; conditions: po, read-out: Catalep. ED50 (po)
Method: Catalepsy wire mesh, rat, max. (ED50 μmol/kg p.o.)
A vertical wire netting (50 cm×49 cm). The meshes (openings) of the netting are square (1 cm×1 cm). The wire diameter is 2 mm.
The animals are labeled and used in groups of five. The test substance is administered orally (p.o.) at 4 dose levels selected from a fixed dose scale.
The animals are placed in the middle of the vertical wire netting 60, 120, 180, 240, 300 and 360 minutes after administration of the test compound. The animals are considered cataleptic when they remain immobile during a period of 15 seconds. This cataleptic reaction is designated +.
If the rats are "atonic" and passively slide down the wire mesh they are considered not cataleptic. If the animals climb up and down the wire mesh they are nor cataleptic. In both situations the designation - is used.

5-HT, rat fundus strip = experiment: 5-HT antagonism, rat fundus strip; conditions: read-out: 5HT rat-fundus-strip IC50
Method: 5-HT antagonism, rat fundus strip
5-hydroxytryptamine (5-HT).
Rats are killed by a blow on the head and exsanguinated. The stomach fundus is removed and carefully cleaned with Krebs solution at 30° C. The fundus is then stretched over a rounded end of a plastic rod about the thickness of a pencil, whereby the longitudinal direction of the muscle fibers is visible. The fundus is halved by carefully cutting in the central line and in the direction of these fibres. Along this incision two strips with a length of 15-25 mm and with width 1.5-2.5 mm are cut, one from each half of the fundus. The mucosa is then carefully removed. A thread is attached to each end of a strip. One thread is fixed to a pin in the bottom of the organ bath and the other thread is fixed to an isotonic transducer. The strip is kept under a tone of 1.5 to 2.0 g. […] Concentration response curves to 5-HT are obtained by adding 5-HT to the bath in increasing concentrations (0.1 ml of 10^-9 M resulting in 1.0×10^-11 M in the bath, 0.2 ml of 10^-9 M resulting in 3.0×10^-11 M, 0.1 ml of 10^-8 M resulting in about 1×10^-10 M, 0.2 ml of 10^-8 M resulting in about 3×10^-10 M--0.2 ml of 10^-4 resulting in about 3×10^-6 M in the bath). Each concentration of 5-HT is allowed to exert its maximal effect (1-10 min) before the next is added. When the maximal response is reached the tissue is carefully washed. The test substance is added to the bath for 10 min. before examining its effect on a new cumulative 5-HT concentration response curve. From the control concentration effect curve the Km for 5-HT is calculated.
The results are recorded as mean percentage inhibition.
Substrate concentration for 5-HT: 1.0×10^-9 M to 1.0×10^-8 M.
Michaelis-Menten constant for 5-HT is estimated each time.

methylphenidate = experiment: Methylphenidate antagonism, mice i.p.; assay type: in vivo; conditions: Mus musculus, ip
Method: Methylphenidate antagonism (ED50 μmol/kg i.p.)
Perspex observation cages without bottom and lid, consisting of 5 sections each measuring 12×25×30 cm.
Two hours after injection of test substance, methylphenidate, 60 mg/kg, is injected s.c. After administration of methylphenidate the mice are placed in the observation cages, 2 in each cage, where they remain for exactly 1 hour. The cages are placed on corrugated paper, the corrugations facing upwards. It is examined whether the mice have been biting the corrugated paper or not.
The result is stated in fractions: 0/3, 1/3, 2/3 and 3/3 where 0, 1, 2 and 3 are the number of pairs which have not been biting on receipt of the dose in question.

[2] = read-out: MePh Antag. ED50 (ip)
[3] = Table 1, mice, i.p., 2 h before methylphenidate 60 mg/kg s.c., read-out: MePh Antag. ED50 (ip)
[4] = Table 1, rat, p.o., max. effect within 6 h
[5] = 10 min, Table 1, rat fundus strip in vitro, 10 min pre-exposure
[6] = Table 2, hydroxyindane intermediates, mice, i.p., read-out: MePh Antag. ED50

Work on `CN(C)CCCN1c2ccccc2Sc2ccc(Cl)cc21` [Chlorpromazine, reference compound] yielded an ED50 ([1]; Rattus norvegicus, 6 h) of 70 µmol/kg and an IC50 (5-HT, rat fundus strip; Rattus norvegicus, 10 min) of over 5000 nM.

`OCCN1CCN(CCCN2c3ccccc3Sc3ccc(C(F)(F)F)cc32)CC1` [Fluphenazine, reference compound] gave an ED50 (methylphenidate; [2]) of 0.07 µmol/kg and an ED50 ([1]; Rattus norvegicus, 6 h) of 0.55 µmol/kg.

For `O=C(CCCN1CCC(O)(c2ccc(Cl)cc2)CC1)c1ccc(F)cc1` [Haloperidol, reference compound], the ED50 (methylphenidate; [2]) was 0.11 µmol/kg and the ED50 ([1]; Rattus norvegicus, 6 h) was 1 µmol/kg.

Work on `CN1CCC(C2C=C(c3ccc(F)cc3)c3ccc(F)cc32)CC1` (stereo not drawn) [Lu 19-004, 6-Fluoro-3-(4'-fluorophenyl)-1-(1-methyl-4-piperidyl)-2-indene] yielded an ED50 (methylphenidate; [3]) of 12.2 µmol/kg, an ED50 [1, 4] of 64.2 µmol/kg and an IC50 (5-HT, rat fundus strip; [5]) of 1100 nM.

Compound `Cc1ccc2c(c1)C(O)(C1=CCN(C)CC1)CC2c1ccc(F)cc1` (stereo not drawn) [Lu 19-131, 3-(4'-Fluorophenyl)-1-hydroxy-6-methyl-1-(1-methyl-1,2,3,6-tetrahydropyrid-4-yl)indane] has an ED50 (methylphenidate; [6]) of 14.8 µmol/kg.

For `OC1(C2CCNCC2)CC(c2ccc(F)cc2)c2ccc(F)cc21` (stereo not drawn) [Lu 19-139, 6-Fluoro-3-(4'-fluorophenyl)-1-hydroxy-1-(4-piperidyl)indane], the ED50 (methylphenidate; [6]) was 15.6 µmol/kg.

Compound `CN1CCC(=C2C=C(c3ccc(F)cc3)c3ccc(F)cc32)CC1` [Lu 19-151, 6-Fluoro-3-(4'-fluorophenyl)-1-(1-methyl-4-piperidylidenyl)-2-indene, hydrochloride] has an ED50 (methylphenidate; [3]) of 32.5 µmol/kg, an ED50 [1, 4] of 32.9 µmol/kg and an IC50 (5-HT, rat fundus strip; [5]) of 7500 nM.

Work on `Cc1ccc2c(c1)C(O)(C1=CCN(CCO)CC1)CC2c1ccc(F)cc1` (stereo not drawn) [Lu 19-154, 3-(4'-Fluorophenyl)-1-hydroxy-1-(1-hydroxyethyl-1,2,3,6-tetrahydropyrid-4-yl)-6-methylindane] yielded an ED50 (methylphenidate; [6]) of 6.2 µmol/kg and an IC50 (5-HT, rat fundus strip; Table 2, hydroxyindane intermediates, rat fundus strip in vitro) of 5.4 nM.

`OCCN1CC=C(C2=CC(c3ccc(F)cc3)c3ccc(F)cc32)CC1` (stereo not drawn) [Lu 19-157, 6-Fluoro-3-(4'-fluorophenyl)-1-(1-hydroxyethyl-1,2,3,6-tetrahydropyrid-4-yl)-1-indene, hydrobromide] showed an ED50 (methylphenidate; [3]) of 15.8 µmol/kg, an ED50 [1, 4] of 55.3 µmol/kg and an IC50 (5-HT, rat fundus strip; [5]) of 330 nM.

`COc1ccc2c(c1)C(C1=CCN(CCO)CC1)=CC2c1ccc(F)cc1` (stereo not drawn) [Lu 20-021, 3-(4'-Fluorophenyl)-1-(1-hydroxyethyl-1,2,3,6-tetrahydropyrid-4-yl)-6-methoxy-1-indene, hydrobromide] gave an ED50 (methylphenidate; [3]) of 11.6 µmol/kg and an IC50 (5-HT, rat fundus strip; [5]) of 500 nM.

Compound `CN1CC=C(C2=CC(c3ccc(F)cc3)c3ccc(F)cc32)CC1` (stereo not drawn) [Lu 20-025, 6-Fluoro-3-(4'-fluorophenyl)-1-(1-methyl-1,2,3,6-tetrahydropyrid-4-yl)-1-indene, hydrobromide] has an ED50 (methylphenidate; [3]) of 7.6 µmol/kg, an ED50 [1, 4] of 5.3 µmol/kg and an IC50 (5-HT, rat fundus strip; [5]) of 240 nM.

Work on `CN1CCC(C2=CC(c3ccc(F)cc3)c3ccc(F)cc32)CC1` (stereo not drawn) [Lu 20-028, 6-Fluoro-3-(4'-fluorophenyl)-1-(1-methyl-4-piperidyl)-1-indene, hydrobromide] yielded an ED50 (methylphenidate; [3]) of 0.78 µmol/kg, an ED50 [1, 4] of 6.2 µmol/kg and an IC50 (5-HT, rat fundus strip; [5]) of 200 nM.

With `COc1ccc2c(c1)C(C1CCN(CCO)CC1)=CC2c1ccc(F)cc1` (stereo not drawn) [Lu 20-033, 3-(4'-Fluorophenyl)-1-(1-hydroxyethyl-4-piperidyl)-6-methoxy-1-indene, hydrobromide] the ED50 (methylphenidate; [3]) was 18.3 µmol/kg, the ED50 [1, 4] was 6.2 µmol/kg and the IC50 (5-HT, rat fundus strip; [5]) was 160 nM.

`Cc1ccc2c(c1)C(C1=CCN(CCO)CC1)C=C2c1ccc(F)cc1` (stereo not drawn) [Lu 20-038, 3-(4'-Fluorophenyl)-1-(1-hydroxyethyl-1,2,3,6-tetrahydropyrid-4-yl)-6-methyl-2-indene, hydrobromide] showed an ED50 (methylphenidate; [3]) of 0.89 µmol/kg, an ED50 [1, 4] of 3.8 µmol/kg and an IC50 (5-HT, rat fundus strip; [5]) of 28 nM.

`Cc1ccc2c(c1)C(C1CCN(CCO)CC1)C=C2c1ccc(F)cc1` (stereo not drawn) [Lu 20-039, 3-(4'-Fluorophenyl)-1-(1-hydroxyethyl-4-piperidyl)-6-methyl-2-indene, hydrobromide] gave an ED50 (methylphenidate; [3]) of 93 µmol/kg, an ED50 [1, 4] of over 93 µmol/kg and an IC50 (5-HT, rat fundus strip; [5]) of 1900 nM.

Compound `Cc1ccc2c(c1)C(C1=CCN(C)CC1)C=C2c1ccc(F)cc1` (stereo not drawn) [Lu 20-040, 3-(4'-Fluorophenyl)-6-methyl-1-(1-methyl-1,2,3,6-tetrahydropyrid-4-yl)-2-indene, hydrobromide] has an ED50 (methylphenidate; [3]) of 0.7 µmol/kg, an ED50 [1, 4] of 5.5 µmol/kg and an IC50 (5-HT, rat fundus strip; [5]) of 62 nM.

Work on `Cc1ccc2c(c1)C(C1=CCN(C)CC1)=CC2c1ccc(F)cc1` (stereo not drawn) [Lu 20-041, 3-(4'-Fluorophenyl)-6-methyl-1-(1-methyl-1,2,3,6-tetrahydropyrid-4-yl)-1-indene, hydrobromide] yielded an ED50 (methylphenidate; [3]) of 0.14 µmol/kg, an ED50 [1, 4] of 1.6 µmol/kg and an IC50 (5-HT, rat fundus strip; [5]) of 85 nM.

Compound `Cc1ccc2c(c1)C(=C1CCN(CCO)CC1)C=C2c1ccc(F)cc1` [Lu 20-044, 3-(4'-Fluorophenyl)-1-(1-hydroxyethyl-4-piperidylidenyl)-6-methyl-2-indene,hydrobromide] has an ED50 (methylphenidate; [3]) of 5.1 µmol/kg and an IC50 (5-HT, rat fundus strip; [5]) of 280 nM.

`Cc1ccc2c(c1)C(C1CCN(C)CC1)=CC2c1ccc(F)cc1` (stereo not drawn) [Lu 20-048, 3-(4'-Fluorophenyl)-6-methyl-1-(1-methyl-4-piperidyl)-1-indene, hydrobromide] gave an ED50 (methylphenidate; [3]) of 0.53 µmol/kg, an ED50 [1, 4] of 3.4 µmol/kg and an IC50 (5-HT, rat fundus strip; [5]) of 42 nM.

`Cc1ccc2c(c1)C(C1CCN(CCN3CCNC3=O)CC1)=CC2c1ccc(F)cc1` (stereo not drawn) [Lu 20-064, 3-(4'-Fluorophenyl)-1-(1-(2-imidazolidinon-1-ylethyl)-4-piperidyl)-6-methyl-1-indene, oxalate] showed an ED50 (methylphenidate; [3]) of 0.86 µmol/kg, an ED50 [1, 4] of 6.7 µmol/kg and an IC50 (5-HT, rat fundus strip; [5]) of 22 nM.

Compound `O=C1NCCN1CCN1CCC(C2=CC(c3ccc(F)cc3)c3ccccc32)CC1` (stereo not drawn) [Lu 20-078, 3-(4'-Fluorophenyl)-1-(1-(2-imidazolidinon-1-ylethyl)-4-piperidyl)-1-indene, oxalate] has an ED50 (methylphenidate; [3]) of 16.5 µmol/kg and an IC50 (5-HT, rat fundus strip; [5]) of 120 nM.

Work on `CN1CC=C(C2=CC(c3ccc(F)cc3)c3ccc(Cl)cc32)CC1` (stereo not drawn) [Lu 20-079, 6-Chloro-3-(4'-fluorophenyl)-1-(1-methyl-1,2,3,6-tetrahydropyrid-4-yl)-1-indene, hydrobromide] yielded an ED50 (methylphenidate; [3]) of 3 µmol/kg.

In the case of `O=C1NCCN1CCN1CCC(C2C=C(c3ccc(F)cc3)c3ccccc32)CC1` (stereo not drawn) [Lu 20-082, 3-(4'-Fluorophenyl)-1-(1-(2-imidazolidinon-1-ylethyl)-4-piperidyl)-2-indene], the ED50 (methylphenidate; [3]) is reported as 70.9 µmol/kg and the IC50 (5-HT, rat fundus strip; [5]) is reported as 1500 nM.

`O=C1NCCN1CCN1CCC(C2=CC(c3ccc(F)cc3)c3ccc(F)cc32)CC1` (stereo not drawn) [Lu 20-087, 6-Fluoro-3-(4'-fluorophenyl)-1-(1-(2-imidazolidinon-1-ylethyl)-4-piperidyl)-1-indene, oxalate] gave an ED50 (methylphenidate; [3]) of 10.8 µmol/kg.

`CC(C)c1ccc2c(c1)C(C1=CCN(C)CC1)=CC2c1ccc(F)cc1` (stereo not drawn) [Lu 20-099, 3-(4'-Fluorophenyl)-1-(1-methyl-1,2,3,6-tetrahydropyrid-4-yl)-6-(2-propyl)-1-indene, hydrobromide] gave an ED50 (methylphenidate; [3]) of 5.6 µmol/kg and an IC50 (5-HT, rat fundus strip; [5]) of 5000 nM.

Work on `CC(C)c1ccc2c(c1)C(C1CCN(CCO)CC1)=CC2c1ccc(F)cc1` (stereo not drawn) [Lu 20-109, 3-(4'-Fluorophenyl)-1-(1-hydroxyethyl-4-piperidyl)-6-(2-propyl)-1-indene, hydrochloride] yielded an ED50 (methylphenidate; [3]) of 1.1 µmol/kg.

In the case of `Cc1ccc2c(c1)C(C1CCN(CCN3CCOC3=O)CC1)=CC2c1ccc(F)cc1` (stereo not drawn) [Lu 21-002, 3-(4'-Fluorophenyl)-6-methyl-1-(1-(2-oxazolidinon-3-ylethyl)-4-piperidyl)-1-indene, trifluoroacetate], the ED50 (methylphenidate; [3]) is reported as 1.7 µmol/kg.
